According to patent US11630106B2, “Diagnostic test for distinguishing the smoking status of a subject” (PHILIP MORRIS PRODUCTS S.A., priority 2017, dated 2023):
Like-named read-outs stand apart in the source and are kept apart here.

Legend:
[1] = cited from earlier work
[2] = mice; cited from earlier work
[3] = 24-hour urine, cited from earlier work
[4] = cited from earlier work; remark: listed apart in the source
[5] = Randomized, controlled, open-label, 3-arm study (CC, SA, SW): total NNAL, CEMA and free cotinine measured in urine; assay type: in vivo, human; conditions: for Free Cotinine (ng/mL) SA: SA arm; for concentration at 2 day: human, inhaled
Excerpt: The study included healthy smokers switching to a heat-not-burn (smoke-free alternative (SW)) product or those observing smoking abstinence (SA), compared with continuing to use CC, for 5 days in confinement and prolonged by 85 days in an ambulatory setting. This was an ad libitum smoking study. Baseline measurements are taken by allowing the subject to smoke their chosen brand of conventional cigarette for 2 days. After this 2 day period, the subject is then elected to continue smoking conventional cigarettes, to switch to a smoke-free alternative or to abstain from smoking. The investigational period then begins. Methods for measuring each of the metabolites are described in Haziza et al. (2017) Data in Brief 10, 283-293.
During the confinement period, compliance to product/regimen allocation (exclusive use of smoke-free alternative and CC in SW and CC arms, respectively, and full abstinence from smoking in the SA arm) was ensured by strict distribution of each tobacco stick/CC when requested by the subject. During the ambulatory period, the subjects randomized to the SW arm were instructed to exclusively use HNB products and subjects randomized to the SA arm were instructed to abstain from smoking.
Furthermore, the data are represented as boxplots in the figures below. The bottom of the box is the first quartile (value below which 25% of the observations lie), the top is the third quartile (value below which 75% of the observations lie) and the middle bar is the median of the observations. The whiskers extend to the minimum observed value and maximum observe value respectively.

[6] = cited from earlier work; remark: listed apart in the source
[7] = cited from earlier work; for levels of total NNAL: smoking cessation study
[8] = intravenous infusion of nicotine in abstinent adult smokers
[9] = consumers of conventional cigarettes
[10] = consumers of smoke-free alternatives
[11] = 15 CPD during 5-day confinement
[12] = 20 CPD during 5-day confinement

CN1C(=O)[C@H](O)C[C@H]1c1cccnc1 (relative stereo) [trans-3′-hydroxycotinine]
total clearance ([1]; in vivo): about 82 mL min-1
half-life [1, 8]: 6.6 h
share of the dose of nicotine accounted for by the metabolite [2]: 40-60%

CC(=O)N[C@@H](CSCCC#N)C(=O)O [CEMA, 2-cyanoethylmercapturic acid]
baseline CEMA, range [3, 9]: 83-115 ng/mg creatinine
baseline CEMA, value in brackets [3, 9]: 98 ng/mg creatinine
average increase at day 5 compared to baseline [3, 9]: 4.2%
change at day 5 compared to baseline, range [3, 9]: −4% to 12%
CEMA at day 5, range [3, 9]: 85-115 ng/mg creatinine
CEMA at day 5, value in brackets [3, 9]: 99.5 ng/mg creatinine
baseline CEMA, range [3, 10]: 85-112 ng/mg creatinine
baseline CEMA, value in brackets [3, 10]: 98 ng/mg creatinine
average decrease at day 5 compared to baseline [3, 10]: −86%
change at day 5 compared to baseline, range [3, 10]: −87% to −85%
CEMA at day 5, range [3, 10]: 11-15 ng/mg creatinine
CEMA at day 5, value in brackets [3, 10]: 13 ng/mg creatinine
baseline CEMA, range ([3]; smoking abstainers): 89-119 ng/mg creatinine
baseline CEMA, value in brackets ([3]; smoking abstainers): 103 ng/mg creatinine
average decrease at day 5 compared to baseline ([3]; smoking abstainers): −86%
decrease at day 5 compared to baseline, range ([3]; smoking abstainers): −88 to −85%
CEMA at day 5, range ([3]; smoking abstainers): 10-15 ng/mg creatinine
CEMA at day 5, value in brackets ([3]; smoking abstainers): 12 ng/mg creatinine
levels of urinary CEMA ([4]; 0 CPD during 5-day confinement): 38.3 μg/24 h
levels of urinary CEMA ([4]; 5 CPD during 5-day confinement): 93.2 μg/24 h
levels of urinary CEMA [4, 11]: 168.0 μg/24 h
levels of urinary CEMA [4, 12]: 218.0 μg/24 h
CEMA excreted (mean±SD) ([4]; non-smokers): 4.6 ± 35 µg/L
CEMA excreted (second value, 'or') ([4]; non-smokers): 1.9 µg/L
urinary excretion of CEMA, range ([4]; non-smokers): below 2 ng/mL
CEMA excreted (mean±SD) ([4]; smokers): 187 ± 181 µg/L
CEMA excreted (second value, 'or') ([4]; smokers): 184 µg/L
urinary excretion of CEMA, range ([4]; smokers): 20 to 205 ng/mL
lowering of CEMA levels in urine ([4]; smoking cessation studies of 5 to 8 days): 7- to 10 fold

CN1C(=O)CC[C@H]1c1cccnc1 [Free Cotinine, cotinine]
Free Cotinine (ng/mL) SA ([5]; Day 2, IQR, listed as cotinine): 339 to 959 ng/mL
Free Cotinine (ng/mL) SA ([5]; Day 2, IQR, listed as free cotinine): 128 to 313 ng/mL
concentration at 2 day ([5]; SW arm, Day 2, IQR, read-out: Free Cotinine (ng/mL) SW): 546 to 1160 ng/mL
concentration at 2 day ([5]; day 2, read-out: cotinine levels in conventional cigarette smokers): 459 to 1350 ng/mL
cotinine levels indicative of heavy smoker status ([6]; consuming more than 20 cigarettes a day): above 300 ng/mL
cotinine levels indicative of no active smoking ([6]; in vivo): < 10 ng/mL
cotinine levels in active smokers ([6]; saliva): ≥ 100 ng/mL
detectability after smoking abstinence ([6]; urine, saliva or blood): no longer detectable in urine, saliva or blood after about two days of smoking abstinence
cotinine levels in active smokers ([6]; urine): ≥ 500 ng/mL
in vivo half-life ([1]; in vivo): about 20 hours
total clearance ([1]; in vivo): 45 mL/min
half-life [1, 8]: 17.5 h
share of the dose of nicotine accounted for by the metabolite [2]: about 15%

O=NN1CCC[C@H]1c1cccnc1 [NNN]
detectability in the urine of non-smokers [7]: Neither NNAL nor NNN are in principle detectable

CN(CCCC(O)c1cccnc1)N=O (stereo not shown) [Total NNAL, 4-(methylnitrosamino)-1-(3-pyridyl)-1-butanol]
Total NNAL (pg/mL) SW ([5]; SW arm, Day 5, IQR): 17 to 41 pg/mL
total NNAL levels in smoking abstainers ([5]; between day 5 and day 30): 2.5 to 46 pg/mL
baseline total NNAL, range [3, 9]: 84-131 pg/mg creatinine
baseline total NNAL, value in brackets [3, 9]: 105 pg/mg creatinine
average increase at day 5 compared to baseline [3, 9]: 3.9%
change at day 5 compared to baseline, range [3, 9]: −2.8% to 10.5%
total NNAL at day 5, range [3, 9]: 85-133 pg/mg creatinine
total NNAL at day 5, value in brackets [3, 9]: 107 pg/mg creatinine
baseline total NNAL, range [3, 10]: 95-129 pg/mg creatinine
baseline total NNAL, value in brackets [3, 10]: 111 pg/mg creatinine
average decrease at day 5 compared to baseline [3, 10]: −54%
change at day 5 compared to baseline, range [3, 10]: −57% to −51%
total NNAL at day 5, range [3, 10]: 42-58 pg/mg creatinine
total NNAL at day 5, value in brackets [3, 10]: 49 pg/mg creatinine
baseline total NNAL, range ([3]; smoking abstainers): 94-150 pg/mg creatinine
baseline total NNAL, value in brackets ([3]; smoking abstainers): 119 pg/mg creatinine
average decrease at day 5 compared to baseline ([3]; smoking abstainers): −63.9%
decrease at day 5 compared to baseline, range ([3]; smoking abstainers): −67 to −61%
total NNAL at day 5, range ([3]; smoking abstainers): 31-54 pg/mg creatinine
total NNAL at day 5, value in brackets ([3]; smoking abstainers): 41 pg/mg creatinine
levels of urinary NNAL ([7]; 0 CPD during 5-day confinement): 311 ng/24 h
levels of urinary NNAL ([7]; 5 CPD during 5-day confinement): 422 ng/24 h
levels of urinary NNAL [7, 11]: 549 ng/24 h
levels of urinary NNAL [7, 12]: 624 ng/24 h
levels of total NNAL ([7]; after 28 days): 0.26 nmol/24 h
levels of total NNAL ([7]; after 42 days): 0.2 nmol/24 h
levels of total NNAL ([7]; baseline): 2.70 nmol/24 h
levels of total NNAL ([7]; day 56): 0.13 nmol/24 h
decrease of NNAL levels ([7]; smoking cessation/abstinence studies lasting 3 to 8 days): 3- to 4 fold
detectability in the urine of non-smokers [7]: Neither NNAL nor NNN are in principle detectable
urine levels in non-smokers using other tobacco or nicotine replacement products or exposed to second-hand smoke ([7]; urine): ~0.1 nmol
half-life ([7]; usually measured in the urine, estimated): 17 h

C[N+]1([O-])CCC[C@H]1c1cccnc1 (stereo partly shown) [nicotine-1′-N-oxide]
share of the nicotine absorbed by smokers (minor metabolite) ([1]; in vivo): 4-7%

CN1CCCC1c1cccnc1 (stereo not shown) [nicotine]
half-life ([1]; in vivo, iv): 2.3 h
share of the inhaled amount metabolized by the liver (first pass effect) ([1]; in vivo): 80-90%
total clearance ([1]; in vivo): about 1200 mL min-1
